Our source for the TGI values is PubChem BioAssay (NCI).

Each structure is given as a SMILES string.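 Exposure lasted 48 hours, with cells grown in 96-well plates and compounds tested at five concentrations. TGI is the concentration that stops growth completely.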

Test systems include ACHN renal; SF-295 CNS; OVCAR-3 ovarian; HCC-2998 colon; HCT-15 colon; NCI-H23 lung; CCRF-CEM leukemia; SR leukemia; IGROV1 ovarian; U251 CNS; UACC-62 melanoma; UACC-257 melanoma; UO-31 renal; SN12C renal; SK-MEL-2 melanoma.
Test in all cases: NCI anticancer screen, dose series, 48 h

With `CCOC(=O)c1csc(-c2cn(C)c3c2C(=O)C(OC)=CC3=O)n1`, the TGI with ACHN renal was above 100 µM; with SF-295 CNS, 96.9 µM; in the assay with OVCAR-3 ovarian it was above 31.9 µM; in the assay with HCC-2998 colon it was above 100 µM; with HCT-15 colon it was above 100 µM; in the assay on NCI-H23 lung, above 56.7 µM. The TGI with CCRF-CEM leukemia is above 100 µM; in the assay on SR leukemia, above 100 µM; in the assay with IGROV1 ovarian, above 100 µM; with U251 CNS it was above 100 µM; with UACC-62 melanoma, above 59 µM; with UACC-257 melanoma, above 78.9 µM. The TGI with UO-31 renal is above 100 µM; in the assay with SN12C renal, above 100 µM; in the assay with SK-MEL-2 melanoma, above 78 µM.

Consider `Nn1c(CCCCCCCCc2n[nH]c(=S)n2N)n[nH]c1=S`, for which the TGI with ACHN renal, in the assay on SF-295 CNS, with OVCAR-3 ovarian, in the assay with HCC-2998 colon, in the assay with HCT-15 colon and in the assay with NCI-H23 lung was above 100 µM throughout. For the same compound, the TGI with CCRF-CEM leukemia, in the assay on SR leukemia, in the assay on IGROV1 ovarian, in the assay on U251 CNS, with UACC-62 melanoma and in the assay with UACC-257 melanoma was above 100 µM in each case. For the same compound, the TGI with UO-31 renal, with SN12C renal and with SK-MEL-2 melanoma was above 100 µM in each case.

Take `CC(C)CC1NC(=O)CCC(NC(=O)C(Cc2ccc(O)cc2)NC(=O)OCc2ccccc2)C(=O)NC(Cc2ccccc2)C(=O)NC(Cc2ccccc2)NC1=O` (stereo not given): the TGI in the assay on ACHN renal, in the assay on SF-295 CNS, in the assay with OVCAR-3 ovarian, in the assay with HCC-2998 colon, with HCT-15 colon and in the assay on NCI-H23 lung was above 100 µM each time. Besides, the TGI with CCRF-CEM leukemia, in the assay on SR leukemia, in the assay with IGROV1 ovarian, in the assay with U251 CNS, in the assay on UACC-62 melanoma and in the assay with UACC-257 melanoma was above 100 µM each time. Also, the TGI in the assay with UO-31 renal, in the assay with SN12C renal and in the assay on SK-MEL-2 melanoma was above 100 µM in each case.

As to `CC1(C)CCC[C@@]2(C)C1CC[C@@]1(CO1)[C@@H]2/C=C\C(C=O)CC=O` (stereo not given in full), the TGI in the assay with ACHN renal, with SF-295 CNS, in the assay on OVCAR-3 ovarian, in the assay on HCC-2998 colon, in the assay with HCT-15 colon and in the assay with NCI-H23 lung was above 100 µM each time. Further, the TGI in the assay with CCRF-CEM leukemia is above 68.7 µM; in the assay with SR leukemia it was 99.2 µM; in the assay on IGROV1 ovarian it was above 100 µM; in the assay with U251 CNS it was above 100 µM; with UACC-62 melanoma, above 100 µM; in the assay with UACC-257 melanoma it was above 100 µM. Besides, the TGI with UO-31 renal, in the assay on SN12C renal and in the assay with SK-MEL-2 melanoma was above 100 µM throughout.

With `COC(=O)/C(C#N)=C/c1cc(C(C)(C)C)c(O)c(C(C)(C)C)c1`, the TGI is above 31.3 µM with ACHN renal; 6.74 µM with SF-295 CNS; 5.55 µM with OVCAR-3 ovarian; 7.8 µM with HCC-2998 colon; 13 µM in the assay with HCT-15 colon; 12.5 µM in the assay with NCI-H23 lung. In addition, the TGI in the assay on CCRF-CEM leukemia was 9.69 µM; in the assay on SR leukemia, 11 µM; with IGROV1 ovarian, above 100 µM; with U251 CNS, 11.5 µM; in the assay on UACC-62 melanoma it was 15.1 µM; in the assay with UACC-257 melanoma it was 6.72 µM. The TGI amounted to 10 µM in the assay with UO-31 renal, 8.17 µM in the assay with SN12C renal and 4.92 µM with SK-MEL-2 melanoma.

In the case of `CC(O)C1OC(n2ccc(=O)[nH]c2=O)CC1n1cncn1` (stereo not given), the TGI with ACHN renal, with SF-295 CNS, in the assay with OVCAR-3 ovarian, in the assay with HCC-2998 colon, with HCT-15 colon and in the assay with NCI-H23 lung was above 100 µM each time. Besides, the TGI with CCRF-CEM leukemia, with SR leukemia, with IGROV1 ovarian, in the assay on U251 CNS, with UACC-62 melanoma and with UACC-257 melanoma was above 100 µM each time. Further, the TGI in the assay on UO-31 renal, in the assay with SN12C renal and in the assay on SK-MEL-2 melanoma was above 100 µM in each case.

As to `CCOC(=O)c1nc2cc(F)cc(F)c2[nH]c1=O`, the TGI in the assay on ACHN renal, in the assay with SF-295 CNS, in the assay on OVCAR-3 ovarian, in the assay with HCC-2998 colon, in the assay on HCT-15 colon and in the assay on NCI-H23 lung was above 100 µM throughout. Besides, the TGI with CCRF-CEM leukemia, in the assay with SR leukemia, in the assay with IGROV1 ovarian, in the assay with U251 CNS, in the assay on UACC-62 melanoma and in the assay with UACC-257 melanoma was above 100 µM in each case. Also, the TGI in the assay on UO-31 renal, with SN12C renal and with SK-MEL-2 melanoma was above 100 µM throughout.

For `O=C(O)CCC(NC(=O)c1ccc(Oc2nc3ccccc3nc2-c2ccccc2)cc1)C(=O)O` (stereo not given), the TGI in the assay on ACHN renal, with SF-295 CNS, in the assay on OVCAR-3 ovarian, in the assay with HCC-2998 colon, in the assay on HCT-15 colon and in the assay with NCI-H23 lung was above 100 µM each time. In addition, the TGI in the assay with CCRF-CEM leukemia, with SR leukemia, with IGROV1 ovarian, in the assay on U251 CNS, in the assay with UACC-62 melanoma and in the assay on UACC-257 melanoma was above 100 µM throughout. Besides, the TGI with UO-31 renal, with SN12C renal and in the assay with SK-MEL-2 melanoma was above 100 µM each time.

`O=c1c2ccccc2nc(N/N=C/c2ccc(Cl)cc2)n1-c1ccccc1`: the TGI with ACHN renal, with SF-295 CNS, in the assay with OVCAR-3 ovarian, with HCC-2998 colon, with HCT-15 colon and with NCI-H23 lung was above 100 µM throughout. Further, the TGI with CCRF-CEM leukemia, with SR leukemia, in the assay on IGROV1 ovarian, in the assay on U251 CNS, in the assay with UACC-62 melanoma and in the assay with UACC-257 melanoma was above 100 µM throughout. In addition, the TGI is 88 µM in the assay with UO-31 renal, above 100 µM in the assay with SN12C renal and 77.2 µM in the assay with SK-MEL-2 melanoma.
